Tested on: Plasmopara viticola
Experiment: activity against peronospora of grapevines caused by Plasmopara viticola (protective spray test on potted vines)
Type: in vivo, Plasmopara viticola on vines of the cultivar "Riesling"
Conditions: individual active compound, untreated control 92% infection
Method: The active compounds, separately or jointly, were prepared as a stock solution comprising 0.25% by weight of active compound in acetone or DMSO. 1% by weight of the emulsifier Uniperol® EL (wetting agent having emulsifying and dispersant action based on ethoxylated alkylphenols) was added to this solution, and the mixture was diluted with water to the desired concentration.
Use example—activity against peronospora of grapevines caused by Plasmopara viticola Leaves of potted vines of the cultivar “Riesling” were sprayed to runoff point with an aqueous suspension having the concentration of active compound stated below. The next day, the undersides of the leaves were inoculated with an aqueous zoospore suspension of Plasmopara viticola. The grapevines were then initially placed in a water-vapor-saturated chamber at 24° C. for 48 hours and then in a greenhouse at 20-30° C. for 5 days. After this period of time, the plants were again placed in a humid chamber for 16 hours to promote sporangiophore eruption. The extent of the development of the disease on the undersides of the leaves was then determined visually.
The visually determined percentages of infected leaf areas were converted into efficacies in % of the untreated control:
The efficacy (E) is calculated as follows using Abbot's formula: E=(1−[…] )·100 α corresponds to the fungicidal infection of the treated plants in % and β corresponds to the fungicidal infection of the untreated (control) plants in % An efficacy of 0 means that the infection level of the treated plants corresponds to that of the untreated control plants; an efficacy of 100 means that the treated plants were not infected.
The expected efficacies of mixtures of active compounds were determined using Colby's formula (Colby, S. R. “Calculating synergistic and antagonistic responses of herbicide combinations”, Weeds, 15, 20-22, 1967) and compared with the observed efficacies.
Colby's formula: E=x+y−x·y/100
E expected efficacy, expressed in % of the untreated control, when using the mixture of the active compounds A and B at the concentrations a and b x efficacy, expressed in % of the untreated control, when using the active compound A at the concentration a y efficacy, expressed in % of the untreated control, when using the active compound B at the concentration b

Structure (SMILES)	Efficacy in % of the untreated control (16 ppm in the spray liquor) [%]	Efficacy in % of the untreated control (4 ppm in the spray liquor) [%]	Efficacy in % of the untreated control (63 ppm in the spray liquor) [%]
CC1CCN(c2c(-c3c(F)cc(F)cc3F)c(Cl)nc3ncnn23)CC1 [compound I, 5-chloro-7-(4-methylpiperidin-1-yl)-6-(2,4,6-trifluorophenyl)-[1,2,4]triazolo[1,5-a]pyrimidine]	56	–	–
OC(c1ccc(Cl)cc1)(c1cncnc1)c1ccccc1Cl (stereo not shown) [compound II, (4-chlorophenyl)(2-chlorophenyl)pyrimidin-5-ylmethanol]	2	2	2

From patent publication US20070161652A1, “Fungicidal mixtures” (BASF Aktiengesellschaft, priority 2004, published 2007)
